Data as given in publication PMC9780888, “4-Isobutylmethcathinone—A Novel Synthetic Cathinone with High In Vitro Cytotoxicity and Strong Receptor Binding Preference of Enantiomers” (Pharmaceuticals, 2022).
Where a name gives a salt, the structure may show the parent alone.

Assays:
MRC-5 = experiment: WST-1 viability assay, MRC-5 cells; type: cell-based, human; conditions: MRC-5, 72 h incubation, WST-1, four replicates
Procedure: (§1) Based on the novelty of the IMBcat compound, we aimed to evaluate its in vitro cytotoxicity in selected model cell lines as well as to determine the toxicity of the IBMcat enantiomers, since both the chemical structure and chirality of compounds could play a role in their bioactivity (Table 2). The cytotoxic profile of the IBMcat was determined by a WST-1 viability assay after 72-h treatment. For this purpose, cell lines derived from distinct tissues, often affected by NPSs, were chosen, i.e., cells of kidney, hepatic, neural, urinary, and intestinal origin as well as keratinocytes and primary fibroblasts (HEK 293T, Hep G2, HMC-3, SH-SY5Y, 5637, CaCo-2, HaCaT, MRC-5, and BJ, respectively). The cytotoxicity of IBMcat and its enantiomers was concentration- and cell-line dependent, the IC50 values, which were in the micromolar range, are given in Table 2. […] This was followed by embryonic kidney cells HEK 293T (immortalized), in which the toxicity ranged between a concentration of 123 and 192 µM.
(§2) In this study, the following cell lines were used: HEK 293T, Hep G2, HMC-3, SH-SY5Y, 5637, CaCo-2, HaCaT, MRC-5, BJ, and L929. […] The selected cell lines were chosen so that not only primary noncancerous cells are evaluated but also cells derived from tissues, which are the most often affected by novel synthetic drugs, i.e., kidney, liver, urinary bladder, and nervous tissue. […]
(§3) The cytotoxicity of IBMCat was evaluated in vitro by using a WST-1 viability assay (Sigma-Aldrich, Saint Louis, MO, USA) based on the transformation of a tetrazolium salt into colored formazan in metabolically active cells. […] After 72 h of additional incubation of the cells, their viability was determined by WST-1. […] The cells were incubated for 2 h, after which absorbance of the raised formazan was measured spectrophotometrically at 450 nm (reference wavelength of 630 nm) using a UV-Vis spectrometer (Bio-Rad Laboratories, Hercules, CA, USA). […] The half-maximal inhibitory concentrations (IC50) were calculated from the measured dose–response curves by AAT Bioquest.

L929 = experiment: WST-1 viability assay, L929 cells; type: cell-based, mouse; conditions: L929, 72 h incubation, WST-1, four replicates
Procedure: as §1, §2, §3

BJ = experiment: WST-1 viability assay, BJ cells; type: cell-based, human; conditions: 72 h incubation, WST-1, four replicates
Procedure: as §1, §2, §3

Row | SMILES | IC50 (MRC-5; Homo sapiens, MRC5) | IC50 (L929; Mus musculus) | IC50 (BJ; Homo sapiens) | IC50 (MRC-5) | IC50 (L929) | IC50 (BJ)
1 | CNC(C)C(=O)c1ccc(CC(C)C)cc1.Cl (stereo not drawn) [IBMcat, 4-isobutylmethcathinone hydrochloride] | 635 ± 17 µM | 36 ± 4 µM | 749 ± 102 µM |  |  | 
2 | CN[C@H](C)C(=O)c1ccc(CC(C)C)cc1 [R-IBMCat] |  |  |  | 515 ± 34 µM | 39 ± 2 µM | 698 ± 88 µM
3 | CN[C@@H](C)C(=O)c1ccc(CC(C)C)cc1 [S-IBMCat, (S)-4-isobutylmethcathinone hydrochloride] | 530 ± 35 µM | 33 ± 5 µM | 685 ± 41 µM |  |  | 
